# Assay results published in patent publication US8415378B2, “Isoxazol-3(2H)-one analogs as therapeutic agents” (AstraZeneca AB, priority 2009, dated 2013).
# Molecular target: T1, human Glu-plasminogen (Homo sapiens, UniProt P00747)
# T1 construct: human Glu-plasminogen; purchased Chromogenix, Italy
# Assay: Clot-lysis buffer assay
# Type: biochemical
# Description: The assay method used for evaluating biological activity of the compounds according to the invention was Clot-lysis buffer assay.
# Tested substance were added to the reaction mixture in 10% DMSO. Reaction was started by the addition of thrombin.
# Measured according to the Clot-lysis buffer assay described above.
# T1 sequence (P00747 20-810 limits assumed): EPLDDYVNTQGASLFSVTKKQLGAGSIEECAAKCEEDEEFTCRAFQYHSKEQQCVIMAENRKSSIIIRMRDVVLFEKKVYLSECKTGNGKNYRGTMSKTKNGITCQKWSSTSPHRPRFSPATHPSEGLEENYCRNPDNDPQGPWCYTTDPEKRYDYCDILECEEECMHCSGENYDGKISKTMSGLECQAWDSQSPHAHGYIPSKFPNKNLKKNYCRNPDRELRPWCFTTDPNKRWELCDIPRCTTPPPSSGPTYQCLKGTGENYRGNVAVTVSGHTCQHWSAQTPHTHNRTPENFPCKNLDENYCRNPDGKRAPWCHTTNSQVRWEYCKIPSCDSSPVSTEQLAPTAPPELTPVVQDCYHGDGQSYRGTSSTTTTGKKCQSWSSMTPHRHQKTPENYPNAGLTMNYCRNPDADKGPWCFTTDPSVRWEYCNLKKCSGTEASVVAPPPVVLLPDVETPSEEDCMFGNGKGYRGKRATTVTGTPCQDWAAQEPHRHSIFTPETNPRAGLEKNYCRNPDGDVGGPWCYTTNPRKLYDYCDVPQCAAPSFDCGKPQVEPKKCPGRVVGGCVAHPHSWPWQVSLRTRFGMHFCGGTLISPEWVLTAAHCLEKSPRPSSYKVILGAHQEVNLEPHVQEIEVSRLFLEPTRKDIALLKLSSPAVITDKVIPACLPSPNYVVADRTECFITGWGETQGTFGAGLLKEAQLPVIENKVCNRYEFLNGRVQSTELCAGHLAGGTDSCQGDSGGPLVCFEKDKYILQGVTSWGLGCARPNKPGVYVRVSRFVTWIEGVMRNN
row,SMILES,IC50 [µM]
1,"O=c1cc([C@H]2CCN[C@@H](c3ccc(Cl)cc3)C2)o[nH]1 [Example 27, 5-((2R,4S)-2-(4-Chlorophenyl)piperidin-4-yl)isoxazol-3(2H)-one]",1.5
2,"CS(=O)(=O)c1ccc([C@H]2C[C@@H](c3cc(=O)[nH]o3)CCN2)cc1 [Example 38, 5-((2R,4S)-2-(4-(Methylsulfonyl)phenyl)piperidin-4-yl)isoxazol-3(2H)-one]",1.5
3,"CS(=O)(=O)c1ccc(C2CC(c3cc(=O)[nH]o3)CCN2)cc1 (stereo not drawn) [Example 39, 5-((Trans-2-(4-(methylsulfonyl)phenyl)piperidin-4-yl)isoxazol-3(2H)-one]",97.3
4,"CC(C)(C)c1ccc([C@H]2C[C@@H](c3cc(=O)[nH]o3)CCN2)s1 [Example 42, 5-((2R,4S)-2-(5-tert-Butylthiophen-2-yl)piperidin-4-yl)isoxazol-3(2H)-one]",34.9
5,"CC(C)(C)c1ccc([C@@H]2C[C@H](c3cc(=O)[nH]o3)CCN2)s1 [Example 43, 5-((2S,4R)-2-(5-tert-Butylthiophen-2-yl)piperidin-4-yl)isoxazol-3(2H)-one]",77.5
6,"O=c1cc([C@H]2CCN[C@@H](c3ccc(Cl)cc3F)C2)o[nH]1 [Example 45, 5-((2R,4S)-2-(4-Chloro-2-fluorophenyl)piperidin-4-yl)isoxazol-3(2H)-one]",2.35
7,"O=c1cc([C@H]2CCN[C@@H](c3ccc(F)cc3Cl)C2)o[nH]1 [Example 47, 5-((2R,4S)-2-(2-Chloro-4-fluorophenyl)piperidin-4-yl)isoxazol-3(2H)-one]",1.4
8,"O=c1cc([C@H]2CCN[C@@H](c3ccc(Cl)cc3Cl)C2)o[nH]1 [Example 51, 5-((2R,4S)-2-(2,4-Dichlorophenyl)piperidin-4-yl)isoxazol-3(2H)-one]",0.9
9,"O=c1cc([C@@H]2CCN[C@H](c3ccc(Cl)cc3Cl)C2)o[nH]1 [Example 52, 5-((2S,4R)-2-(2,4-Dichlorophenyl)piperidin-4-yl)isoxazol-3(2H)-one]",1940

# Continued, values first:
row,IC50 [µM],SMILES
1,283,"O=c1cc([C@@H]2CCN[C@H](c3ccc(Cl)cc3)C2)o[nH]1 [Example 28, 5-((2S,4R)-2-(4-Chlorophenyl)piperidin-4-yl)isoxazol-3(2H)-one]"
2,0.7,"O=c1cc([C@H]2CCN[C@@H](c3cccc(C(F)(F)F)c3)C2)o[nH]1 [Example 30, 5-((2R,4S)-2-(3-(Trifluoromethyl)phenyl)piperidin-4-yl)isoxazol-3(2H)-one]"
3,33.1,"O=c1cc([C@@H]2CCN[C@H](c3cccc(C(F)(F)F)c3)C2)o[nH]1 [Example 31, 5-((2S,4R)-2-(3-(Trifluoromethyl)phenyl)piperidin-4-yl)isoxazol-3(2H)-one]"
4,1.43,"O=c1cc([C@H]2CCN[C@@H](c3ccc(C(F)(F)F)cc3)C2)o[nH]1 [Example 33, 5-((2R,4S)-2-(4-(Trifluoromethyl)phenyl)piperidin-4-yl)isoxazol-3(2H)-one]"
5,150,"O=c1cc([C@@H]2CCN[C@H](c3ccc(C(F)(F)F)cc3)C2)o[nH]1 [Example 34, 5-((2S,4R)-2-(4-(Trifluoromethyl)phenyl)piperidin-4-yl)isoxazol-3(2H)-one]"
6,1.9,"CC(C)(C)c1cccc([C@H]2C[C@@H](c3cc(=O)[nH]o3)CCN2)c1 [Example 36, 5-((2R,4S)-2-(3-tert-Butylphenyl)piperidin-4-yl)isoxazol-3(2H)-one]"
7,1.5,"O=c1cc([C@H]2CCN[C@@H](c3ccc(C(F)(F)F)nc3)C2)o[nH]1 [Example 40, 5-((2R,4S)-2-(6-(Trifluoromethyl)pyridin-3-yl)piperidin-4-yl)isoxazol-3(2H)-one]"
8,2.3,"O=c1cc([C@H]2CCN[C@@H](c3ccc(F)cc3F)C2)o[nH]1 [Example 44, 5-((2R,4S)-2-(2,4-Difluorophenyl)piperidin-4-yl)isoxazol-3(2H)-one]"
9,2,"O=c1cc([C@H]2CCN[C@@H](c3ccc(Cl)c(F)c3)C2)o[nH]1 [Example 49, 5-((2R,4S)-2-(4-Chloro-3-fluorophenyl)piperidin-4-yl)isoxazol-3(2H)-one]"
